What was measured:
B. burgdorferi [1] = assay: Study B: SNAP-4Dx ELISA in tick-infected dogs; type: in vivo, beagle dogs; conditions: for SNAP-4Dx Positives, Number of Dogs: N = 8/group
From the text: (§1) Three outer surface proteins (Osp) on B. burgdorferi are important for diagnosis and prevention, and are expressed by the organism in response to its local environment. […] OspF is another surface protein that is generally observed in late-stage disease. The C in […] refers to a 25-amino acid, C6 peptide in the sixth invariable region of an outer membrane lipoprotein (VIsE). Antibody against C6 is highly accurate as a serologic diagnosis of Lyme disease independent of a subject's (e.g., canine) vaccination status. Further, the generation of C6 antibodies implies an active infection with viable spirochetes. Serological methods for detecting B. burgdorfer/Lyme disease were conducted using the IDEXX qualitative SNAP-4Dx ELISA and the Quantitative C6 (Quant C6 or QC6) diagnostic kits, which are enzyme linked immunosorbent assays against the previously described 25-amino-acid C6 peptide. QC6 ELISA data, units/mL, are useful for guidance in initiating and evaluating response to therapy (See Levy S A, O'Connor T P, Hanscom J L, Shields P, et al. Quantitative measurement of a C6 antibody following antibiotic treatment of Borrelia burgdorferi antibody-positive, nonclinical dogs. Clin Vacc Immunol 2008; 15(1):115-119 and Littman M P, Goldstein R E, Labato M A, et al. ACVIM Small Animal Concensus Statement on Lyme Disease in Dogs: Diagnosis, Treatment and Prevention. J Vet Intern Med 2006; 20: 422-434).
Thirty-two (18 male and 14 female) beagle dogs were sero-negative for Borrelia burgdorferi, not vaccinated with any Borrelia spp vaccines, and acclimated at the study facility for seven days. The study was conducted under National Research Council guidelines (1996). […] Field-caught Ixodes from the northeast USA were placed on the dogs without containment chambers for 10 days; after ticks fed to repletion, dogs were treated with two applications of an approved topical acaricide with a 30-day interval between applications.
Forty days post-challenge, and prior to antibiotic treatments, blood was collected from each dog as were two skin biopsy punch samples near tick attachment sites. Blood was collected approximately monthly post-treatment. Skin biopsies were taken near the tick attachment site on Days 48/49, 118, 146, 180, and 315. Serum antibodies to Borrelia were assayed using the IDEXX SNAP-4Dx and QC6 ELISA. In cooperation with Cornell University, serum samples were analyzed using fluorescent-bead-based multiplex assays detecting antibodies against B. burgdorferi outer surface proteins OspA, OspC, and OspF. Data were expressed as median fluorescent intensities (MFI), and shown to be specific and sensitive to provide interpretative guidelines regarding infection. The skin biopsies were collected for a polymerase chain reaction (PCR; FlaB) assay and cultured for spirochete detection. At the end of the study, blood and skin biopsies were collected and synovial tissue from the joints were harvested at necropsy.
On Day 75 and Day 89 Convenia was administered to the eight dogs in T04 (8 mg/kg bodyweight; subcutaneous injection). The other treated groups received their respective regimens daily and orally for 30 days from Days 75 to 104. […] Dogs in T01 served as infected, untreated, controls. Inter-treatment comparisons to evaluate antibiotic efficacy included clinical signs, serology, culture results and pathology.

[2] = feline; cited from earlier work
B. burgdorferi [3] = assay: Study A: Quantitative C6 (QC6) antibody ELISA in tick-infected dogs; type: in vivo, beagle dogs; conditions: Convenia Rx Days 83 and 97
From the text: as §1
Twenty-three adult female beagle dogs were used in this study; all were sero-negative for Borrelia, not vaccinated with any Borrelia spp vaccines, and acclimated at the study facility for seven days prior to any study activities. The study was conducted under National Research Council guidelines (1996. Dogs were randomized to a non-infected control (n=7 dogs) group, or infected groups (n=8 dogs/region) using ticks from two regions of the USA, Region A (New England (NE), i.e., Rhode Island) and Region B (Midwest (MW), i.e., Wisconsin). Dogs were infected on Day 0 with up to 30 Ixodes scapularis ticks per dog. Tick attachment was monitored daily and after nine days, remaining ticks were harvested and all dogs were treated with two topical applications of an approved acaricide observing a 30-day interval between applications. Dogs were monitored 21-days post-challenge for pyrexia, and the entire post-challenge period for clinical signs of Lyme disease (lameness, ataxia, anorexia, lymphadenopathy and depression).
Blood was collected from each dog weekly to Day 28, then every two-weeks for the remainder of the study (166 days). Serum antibodies to Borrelia were assayed using SNAP-4Dx and QC6 ELISA. Two skin punch biopsies were collected near tick attachment sites from each dog every 28 days post-challenge for bacterial culture.
Comparisons included serology, skin culture results and joint pathology.

## CO/N=C(\C(=O)N[C@@H]1C(=O)N2C(C(=O)[O-])=C([C@@H]3CCCO3)CS[C@H]12)c1csc(N)n1.[Na+] [Convenia, (6R,7R)-7-[[(2Z)-(2-amino-4-thiazolyl)(methoxyimino)acetyl]-amino]-8-oxo-3-[(2S)-tetrahydro-2-furanyl]-5-thia-1-azabicyclo[4.2.0]oct-2-ene-2-carboxylic acid, monosodium salt]
B. burgdorferi [1]; Day 48 (pre-treatment; antibiotics from Day 75)
  SNAP-4Dx Positives, Number of Dogs: 6
B. burgdorferi [1]; Day 111
  SNAP-4Dx Positives, Number of Dogs: 5
B. burgdorferi [1]; Day 145
  SNAP-4Dx Positives, Number of Dogs: 1
B. burgdorferi [1]; Day 179
  SNAP-4Dx Positives, Number of Dogs: 2
B. burgdorferi [1]; Day 221
  SNAP-4Dx Positives, Number of Dogs: 0
B. burgdorferi [1]; Day 251
  SNAP-4Dx Positives, Number of Dogs: 0
B. burgdorferi [1]; Day 281
  SNAP-4Dx Positives, Number of Dogs: 0
B. burgdorferi [1]; Day 315
  SNAP-4Dx Positives, Number of Dogs: 0
B. burgdorferi [1]; Day −15 (pre-infection)
  SNAP-4Dx Positives, Number of Dogs: 0
B. burgdorferi [1]; rest of the study after Day 179
  SNAP-4Dx positive dogs: none positive
[2]
  Elimination half-life: ~166 h
B. burgdorferi [3]; Group 4 Control (no ticks), Day 0
  Mean QC6 Antibody Levels: 0 U/mL
B. burgdorferi [3]; Group 4 Control (no ticks), Day 7
  Mean QC6 Antibody Levels: 0 U/mL
B. burgdorferi [3]; Group 4 Control (no ticks), Day 20
  Mean QC6 Antibody Levels: 0 U/mL
B. burgdorferi [3]; Group 4 Control (no ticks), Day 27
  Mean QC6 Antibody Levels: 0 U/mL
B. burgdorferi [3]; Group 4 Control (no ticks), Day 41
  Mean QC6 Antibody Levels: 0 U/mL
B. burgdorferi [3]; Group 4 Control (no ticks), Day 54
  Mean QC6 Antibody Levels: 0 U/mL
B. burgdorferi [3]; Group 4 Control (no ticks), Day 69
  Mean QC6 Antibody Levels: 0 U/mL
B. burgdorferi [3]; Group 4 Control (no ticks), Day 83
  Mean QC6 Antibody Levels: 0 U/mL
B. burgdorferi [3]; Group 4 Control (no ticks), Day 97
  Mean QC6 Antibody Levels: 0 U/mL
B. burgdorferi [3]; Group 4 Control (no ticks), Day 111
  Mean QC6 Antibody Levels: 0 U/mL
B. burgdorferi [3]; Group 4 Control (no ticks), Day 125
  Mean QC6 Antibody Levels: 0 U/mL
B. burgdorferi [3]; Group 4 Control (no ticks), Day 138
  Mean QC6 Antibody Levels: 0 U/mL
B. burgdorferi [3]; Group 4 Control (no ticks), Day 153
  Mean QC6 Antibody Levels: 0 U/mL
B. burgdorferi [3]; Group 4 Control (no ticks), Day 166
  Mean QC6 Antibody Levels: 0 U/mL
B. burgdorferi [3]; Group 5 NE Ticks, Day 0 (infestation)
  Mean QC6 Antibody Levels: 0 U/mL
B. burgdorferi [3]; Group 5 NE Ticks, Day 7 (pre-treatment)
  Mean QC6 Antibody Levels: 0 U/mL
B. burgdorferi [3]; Group 5 NE Ticks, Day 20 (pre-treatment)
  Mean QC6 Antibody Levels: 148.5 U/mL
B. burgdorferi [3]; Group 5 NE Ticks, Day 27 (pre-treatment)
  Mean QC6 Antibody Levels: 148.75 U/mL
B. burgdorferi [3]; Group 5 NE Ticks, Day 41 (pre-treatment)
  Mean QC6 Antibody Levels: 239.25 U/mL
B. burgdorferi [3]; Group 5 NE Ticks, Day 54 (pre-treatment)
  Mean QC6 Antibody Levels: 209.5 U/mL
B. burgdorferi [3]; Group 5 NE Ticks, Day 69 (pre-treatment)
  Mean QC6 Antibody Levels: 270.75 U/mL
B. burgdorferi [3]; Group 5 NE Ticks, Day 83 (first dose)
  Mean QC6 Antibody Levels: 122 U/mL
B. burgdorferi [3]; Group 5 NE Ticks, Day 97 (second dose)
  Mean QC6 Antibody Levels: 99.5 U/mL
B. burgdorferi [3]; Group 5 NE Ticks, Day 111
  Mean QC6 Antibody Levels: 48.25 U/mL
B. burgdorferi [3]; Group 5 NE Ticks, Day 125
  Mean QC6 Antibody Levels: 20.5 U/mL
B. burgdorferi [3]; Group 5 NE Ticks, Day 138
  Mean QC6 Antibody Levels: 7.75 U/mL
B. burgdorferi [3]; Group 5 NE Ticks, Day 153
  Mean QC6 Antibody Levels: 4.25 U/mL
B. burgdorferi [3]; Group 5 NE Ticks, Day 166
  Mean QC6 Antibody Levels: 3 U/mL
B. burgdorferi [3]; Group 6 MW Ticks, Day 0 (infestation)
  Mean QC6 Antibody Levels: 0 U/mL
B. burgdorferi [3]; Group 6 MW Ticks, Day 7 (pre-treatment)
  Mean QC6 Antibody Levels: 0 U/mL
B. burgdorferi [3]; Group 6 MW Ticks, Day 20 (pre-treatment)
  Mean QC6 Antibody Levels: 66.5 U/mL
B. burgdorferi [3]; Group 6 MW Ticks, Day 27 (pre-treatment)
  Mean QC6 Antibody Levels: 155 U/mL
B. burgdorferi [3]; Group 6 MW Ticks, Day 41 (pre-treatment)
  Mean QC6 Antibody Levels: 147.25 U/mL
B. burgdorferi [3]; Group 6 MW Ticks, Day 54 (pre-treatment)
  Mean QC6 Antibody Levels: 149.25 U/mL
B. burgdorferi [3]; Group 6 MW Ticks, Day 69 (pre-treatment)
  Mean QC6 Antibody Levels: 110.75 U/mL
B. burgdorferi [3]; Group 6 MW Ticks, Day 83 (first dose)
  Mean QC6 Antibody Levels: 93.75 U/mL
B. burgdorferi [3]; Group 6 MW Ticks, Day 97 (second dose)
  Mean QC6 Antibody Levels: 74.25 U/mL
B. burgdorferi [3]; Group 6 MW Ticks, Day 111
  Mean QC6 Antibody Levels: 51.5 U/mL
B. burgdorferi [3]; Group 6 MW Ticks, Day 125
  Mean QC6 Antibody Levels: 29 U/mL
B. burgdorferi [3]; Group 6 MW Ticks, Day 138
  Mean QC6 Antibody Levels: 22 U/mL
B. burgdorferi [3]; Group 6 MW Ticks, Day 153
  Mean QC6 Antibody Levels: 8.25 U/mL
B. burgdorferi [3]; Group 6 MW Ticks, Day 166
  Mean QC6 Antibody Levels: 6.5 U/mL

Source: US9265771B2, “Method for treating Lyme disease” (Zoetis Services LLC, priority 2012, dated 2016)
